Values joined by “and” are separate entries in the source; they are usually repeats but may differ in a detail not shown here. Equal entries are not always repeated.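 In this assay, cells in 96-well plates receive the compound at five concentrations for 48 hours. Endpoints are linearly interpolated between the surrounding concentrations. Abbreviation: GI50, concentration required for 50% inhibition of growth. TGI marks complete inhibition of growth.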 Where a SMILES comes first, the peptide text is derived from it. [ ]: non-standard residue; d: D form.
What was measured:
Experiment in all cases: NCI anticancer screen, dose series, 48 h
KM12 colon = test system: KM12 colon
MDA-MB-231 breast = test system: MDA-MB-231 breast
MDA-MB-435 = test system: MDA-MB-435
MDA-N = test system: MDA-N
NCI-H522 lung = test system: NCI-H522 lung
RPMI-8226 leukemia = test system: RPMI-8226 leukemia
SF-539 CNS = test system: SF-539 CNS
SNB-75 CNS = test system: SNB-75 CNS
A498 renal = test system: A498 renal
SR leukemia = test system: SR leukemia

C=C1c2c(n(S(=O)(=O)c3ccccc3)c3ccccc23)[C@@]2(C(=O)OC)CC3C=CC2N1C3
TGI (KM12 colon): > 100 µM | TGI (MDA-MB-231 breast): > 100 µM | TGI (MDA-MB-435): > 100 µM | TGI (MDA-N): > 100 µM | TGI (NCI-H522 lung): > 100 µM | TGI (RPMI-8226 leukemia): > 100 µM | TGI (SF-539 CNS): > 100 µM | TGI (SNB-75 CNS): > 100 µM

COc1cc2nc(-c3cccs3)nc(N3CCN(c4ccccc4)CC3)c2cc1OC
TGI (A498 renal): > 100 µM | TGI (KM12 colon): > 100 µM | TGI (MDA-MB-231 breast): > 100 µM | TGI (MDA-MB-435): > 100 µM | TGI (NCI-H522 lung): > 100 µM | TGI (RPMI-8226 leukemia): > 100 µM | TGI (SF-539 CNS): > 100 µM | TGI (SNB-75 CNS): > 100 µM | TGI (SR leukemia): > 100 µM

COC1(OC)CC(CO)(COc2cc(Cl)nc(N)n2)C1
TGI (KM12 colon): > 100 µM | TGI (MDA-MB-231 breast): > 100 µM | TGI (MDA-MB-435): > 100 µM | TGI (MDA-N): > 100 µM | TGI (NCI-H522 lung): > 100 µM | TGI (SF-539 CNS): > 100 µM | TGI (SNB-75 CNS): > 100 µM

O=C1Sc2ccccc2C(=O)N2CCSC12 (configuration not stated)
TGI (A498 renal): > 100 µM | TGI (KM12 colon): > 100 µM | TGI (RPMI-8226 leukemia): > 100 µM | TGI (SR leukemia): > 100 µM

CCOC(=O)Cc1[nH]c(C(=O)c2ccccc2)cc1C(=O)c1ccccc1
TGI (A498 renal): > 100 µM | TGI (KM12 colon): > 100 µM | TGI (MDA-MB-231 breast): > 10 µM | TGI (MDA-MB-435): 66 µM | TGI (NCI-H522 lung): > 100 µM | TGI (RPMI-8226 leukemia): > 10 µM | TGI (SNB-75 CNS): > 100 µM | TGI (SR leukemia): > 100 µM

CC(C)C[C@H](NC(=O)[C@H](CC(C)C)NC(=O)[C@@H](Cc1c[nH]c2ccccc12)NC(=O)[C@H](Cc1ccccc1)NC(=O)[C@@H](Cc1c[nH]c2ccccc12)NC(=O)[C@H](CCC(N)=O)NC(=O)[C@@H](CCC(N)=O)NC(=O)[C@@H]1CCCN1C(=O)[C@@H](CCCCN)NC(=O)[C@H]1CCCN1C(=O)[C@H](N)CCCN=C(N)N)C(N)=O (H-[dR][dP][dK]P[dQ]Q[dW]F[dW]LL-NH2)
TGI (A498 renal): 88.1 µM | TGI (KM12 colon): > 100 µM | TGI (NCI-H522 lung): > 100 µM | TGI (RPMI-8226 leukemia): > 100 µM | TGI (SF-539 CNS): > 100 µM | TGI (SNB-75 CNS): > 100 µM

CSc1nnnc2ccccc12
TGI (A498 renal): > 100 µM | TGI (KM12 colon): > 100 µM | TGI (MDA-MB-231 breast): > 100 µM | TGI (MDA-MB-435): > 100 µM | TGI (MDA-N): > 100 µM | TGI (NCI-H522 lung): > 100 µM | TGI (RPMI-8226 leukemia): > 100 µM | TGI (SF-539 CNS): > 100 µM | TGI (SNB-75 CNS): > 100 µM

CC1CN(c2cc3c(cc2F)c(=O)c(C(=O)O)cn3-c2ccc(N3CCN(C)CC3)cn2)CC(C)N1 (configuration not stated)
TGI (A498 renal): > 100 µM | TGI (KM12 colon): > 100 µM | TGI (MDA-MB-231 breast): > 100 µM | TGI (MDA-MB-435): > 100 µM | TGI (MDA-N): > 100 µM | TGI (RPMI-8226 leukemia): > 100 µM | TGI (SF-539 CNS): > 100 µM | TGI (SNB-75 CNS): > 100 µM | TGI (SR leukemia): > 100 µM

Cc1ccc2sc3c(NCCCN)nc4ccccc4c3c(=O)c2c1
GI50 (A498 renal): 1.87 µM | TGI (A498 renal): 4.64 µM | GI50 (KM12 colon): 1.9 µM | TGI (KM12 colon): 3.51 µM | GI50 (MDA-MB-231 breast): 1.7 µM | TGI (MDA-MB-231 breast): 3.3 µM | GI50 (MDA-MB-435): 1.82 µM | TGI (MDA-MB-435): 3.46 µM | GI50 (RPMI-8226 leukemia): 2.41 µM | TGI (RPMI-8226 leukemia): 5.5 µM | GI50 (SF-539 CNS): 1.76 µM | TGI (SF-539 CNS): 3.21 µM | GI50 (SNB-75 CNS): 1.64 µM | TGI (SNB-75 CNS): 3.56 µM

O=C(O)C(Cc1ccccc1)Cc1ccccc1
TGI (A498 renal): > 100 µM | TGI (KM12 colon): > 100 µM | TGI (MDA-MB-231 breast): > 100 µM | TGI (MDA-MB-435): > 100 µM | TGI (MDA-N): > 100 µM | TGI (NCI-H522 lung): > 100 µM | TGI (RPMI-8226 leukemia): > 100 µM | TGI (SF-539 CNS): > 100 µM | TGI (SNB-75 CNS): > 100 µM

C1=CC2C(C3CN(c4ccccc4)N=C13)C1C3C4C=CC21C=CC43 (configuration not stated)
TGI (A498 renal): > 100 µM | TGI (KM12 colon): > 100 µM | TGI (MDA-MB-231 breast): > 100 µM | TGI (MDA-MB-435): > 100 µM | TGI (NCI-H522 lung): > 100 µM | TGI (RPMI-8226 leukemia): > 100 µM | TGI (SF-539 CNS): > 100 µM | TGI (SNB-75 CNS): > 100 µM

COC(=O)/C1=C/C=C\C[C@@]2(C)CC(c3ccoc3)OC(=O)[C@@H]2CC[C@H]1C (some centres not stated)
TGI (A498 renal): > 25 µM | TGI (KM12 colon): > 25 µM | TGI (MDA-MB-231 breast): > 25 µM | TGI (MDA-N): > 25 µM | TGI (SF-539 CNS): > 25 µM | TGI (SNB-75 CNS): > 25 µM | TGI (SR leukemia): > 25 µM

Cc1ccc(/C=c2\c(=O)[nH]c3nc4ccccc4c(=O)n23)cc1
TGI (KM12 colon): > 100 µM | TGI (MDA-MB-231 breast): > 100 µM | TGI (MDA-MB-435): 60.5 µM | TGI (MDA-N): 62.2 µM | TGI (NCI-H522 lung): > 100 µM | TGI (RPMI-8226 leukemia): > 100 µM | TGI (SF-539 CNS): 43.7 µM | TGI (SNB-75 CNS): 75.6 µM

NS(=O)(=O)c1nnc(NS(=O)(=O)c2cccc3cccnc23)s1
TGI (A498 renal): > 100 µM | TGI (KM12 colon): > 100 µM | TGI (MDA-MB-231 breast): > 100 µM | TGI (MDA-MB-435): > 100 µM | TGI (MDA-N): > 100 µM | TGI (RPMI-8226 leukemia): > 100 µM | TGI (SF-539 CNS): > 100 µM | TGI (SR leukemia): > 100 µM

O=C1CCC2(O)c3ccccc3C2Cc2ccccc21 (configuration not stated)
TGI (KM12 colon): > 100 µM | TGI (RPMI-8226 leukemia): > 100 µM | TGI (SF-539 CNS): > 100 µM | TGI (SNB-75 CNS): > 100 µM | TGI (SR leukemia): > 100 µM

COc1cc(C2c3cccc4cccc(c34)C3CCC(=O)N32)cc(OC)c1O (configuration not stated)
TGI (A498 renal): > 50 µM | TGI (KM12 colon): > 50 µM | TGI (MDA-MB-435): > 50 µM | TGI (MDA-N): > 50 µM | TGI (RPMI-8226 leukemia): > 50 µM | TGI (SF-539 CNS): > 50 µM | TGI (SNB-75 CNS): > 50 µM | TGI (SR leukemia): > 50 µM

CCn1c(CCCc2nc3c([nH]2)c(=O)n(C)c(=O)n3C)nc2c1c(=O)n(C)c(=O)n2C
TGI (A498 renal): > 100 µM | TGI (KM12 colon): > 100 µM | TGI (MDA-MB-231 breast): > 100 µM | TGI (MDA-MB-435): > 100 µM | TGI (MDA-N): > 100 µM | TGI (NCI-H522 lung): > 100 µM | TGI (RPMI-8226 leukemia): > 100 µM | TGI (SF-539 CNS): 30.5 µM

CN(C)C(=O)N1N[C@H](c2ccccc2)[C@@H]1c1ccccc1
TGI (A498 renal): > 100 µM | TGI (KM12 colon): > 100 µM | TGI (MDA-MB-231 breast): > 100 µM | TGI (MDA-MB-435): > 100 µM | TGI (MDA-N): > 100 µM | TGI (NCI-H522 lung): > 100 µM | TGI (RPMI-8226 leukemia): > 100 µM | TGI (SF-539 CNS): > 100 µM | TGI (SNB-75 CNS): > 100 µM

Cc1nc(N)c(N2CCN(S(=O)(=O)N(Cc3ccccc3)Cc3ccccc3)CC2)c(=O)[nH]1
TGI (KM12 colon): > 100 µM | TGI (MDA-MB-231 breast): > 100 µM | TGI (MDA-MB-435): 88.8 µM | TGI (MDA-N): > 100 µM | TGI (RPMI-8226 leukemia): > 100 µM | TGI (SF-539 CNS): 80.6 µM | TGI (SNB-75 CNS): 28.6 µM | TGI (SR leukemia): > 100 µM

COC(=O)/C=C1\C(CO[Si](C)(C)C(C)(C)C)OC(n2cc(C)c(=O)n(C)c2=O)C1O[Si](C)(C)C(C)(C)C (configuration not stated)
TGI (A498 renal): > 100 µM | TGI (KM12 colon): > 100 µM | TGI (MDA-MB-231 breast): > 100 µM | TGI (MDA-MB-435): > 100 µM | TGI (MDA-N): > 100 µM | TGI (NCI-H522 lung): > 100 µM | TGI (RPMI-8226 leukemia): > 100 µM | TGI (SNB-75 CNS): > 100 µM

N#Cc1ccc(-c2ccc(Cl)cc2)n(C2OC(CO)C(O)C(O)C2O)c1=S (configuration not stated)
GI50 (A498 renal): > 100 µM and 18.9 µM | TGI (A498 renal): > 100 µM and 57.5 µM | TGI (KM12 colon): > 100 µM | TGI (MDA-MB-231 breast): > 100 µM | TGI (MDA-N): > 100 µM | GI50 (NCI-H522 lung): > 100 µM and 15.5 µM | TGI (NCI-H522 lung): > 100 µM | TGI (RPMI-8226 leukemia): > 100 µM | TGI (SF-539 CNS): > 100 µM | GI50 (SNB-75 CNS): 43.1 µM and 19.8 µM | TGI (SNB-75 CNS): > 100 µM | TGI (SR leukemia): > 100 µM

CC(C)OC1=C(CC2(C)OCCO2)C(=O)C12OCCO2
TGI (A498 renal): > 100 µM | TGI (KM12 colon): > 100 µM | TGI (MDA-MB-231 breast): > 100 µM | TGI (MDA-MB-435): > 100 µM | TGI (NCI-H522 lung): > 100 µM | TGI (SF-539 CNS): > 100 µM | TGI (SNB-75 CNS): > 100 µM

COc1cc2c3c(n(C)c(=O)c2cc1OC)-c1cc2c(cc1/C3=C\CCCCl)OCO2
TGI (A498 renal): 80.7 µM | TGI (KM12 colon): 70.1 µM | TGI (MDA-MB-231 breast): > 100 µM | GI50 (MDA-MB-435): > 100 µM | TGI (MDA-MB-435): > 100 µM | TGI (MDA-N): > 100 µM | TGI (NCI-H522 lung): > 100 µM | TGI (SNB-75 CNS): 32.2 µM
